Values of other authors, collected in patent US20120122237A1, “HOMOGENEOUS NONCOMPETITIVE DETECTION OF POST TRANSLATIONAL MODIFICATIONS FOR USE IN HIGH THROUGHPUT ASSAYS” (priority 2010, published 2012).

Columns and labels:
[1] = tested on: Polyclonal antibody for 3-PBA; conditions: competitive ELISA
[2] = tested on: Polyclonal antibody for 3-PBA
[3] = tested on: Monoclonal Antibody for Atrazine; conditions: competitive ELISA
[4] = tested on: Monoclonal Antibody for Atrazine

Row | Molecule | Crossreactivity (%) ELISA [1] [%] | Crossreactivity (%) PHAIA [2] [%] | Crossreactivity (%) ELISA [3] [%] | Crossreactivity (%) PHAIA [4] [%]
1 | O=Cc1cccc(Oc2ccccc2)c1 [3-pheonoxy aldehyde] | 10 | 3 | – | –
2 | CC(C)Nc1nc(Cl)nc(NC(C)C)n1 [propazine] | – | – | 116 | 144
3 | O=C(O)c1cccc(Oc2ccccc2)c1 [3-PBA, 3-phenoxybenzoic acid] | 100 | 100 | – | –
4 | CCNc1nc(Cl)nc(NC(C)C)n1 [atrazine] | – | – | 100 | 100
5 | 4-hydroxy 3-PBA | 98 | 0 | – | –
6 | CCNc1nc(Cl)nc(NC(C)(C)C#N)n1 [cyanazine] | – | – | 91 | 0
7 | CCNc1nc(Cl)nc(NCC)n1 [simazine] | – | – | 48 | 0
